Legend:
[1] = test system: Human umbilical vein endothelial cells (HUVEC); assay: HUVEC cell tube formation; type: cell-based; conditions: 0-1000 nM, 18 hours, absence of exogenous opioids
Method: (§1) Two independent model systems were used to explore the role of MOR and endogenous opioids on angiogenesis. Human umbilical vein endothelial cells (HUVEC) in culture initiate angiogenesis through tube formation when cultured on an appropriate extracellular matrix. In a living system, the chicken egg chorioallantoic membrane assay (CAM) allows direct visualization of new blood vessel formation.
Specifically, the HUVEC cell tube formation was assessed in the presence of various doses (0-1000 nM) of three different Mu opioid receptor antagonists (axelopran, naloxegol, and methylnaltrexone (MNTX)). For this testing, the HUVEC cells were exposed to the various MOR antagonist concentrations and incubated under the following conditions: Briefly, 50 μL of Matrigel in 96 well plates was loaded to make one layer of extracellular matrix. The plate was kept for 1 hour at 37° C. HUVEC cells were seeded on top of Matrigel (0.02×10^6 cells/well) and waited for 4 h to form tube formation. […] Once tubes formed, cells were treated with increasing amounts of the test compounds (axelopran, naloxegol, and MNTX) and incubated for 18 hours. Cells were stained with Calcein AM and images were captured. The data analysis was performed using NIH imageJ software. Tube length was measure and data was plotted using prism software.

[2] = test system: Mouse pancreatic tumor cells (PAN02 cells); assay: Syngeneic mouse pancreatic cancer model; type: in vivo, mice (C57BL6)
Method: Mouse pancreatic tumor cells (PAN02 cells), maintained in RPMI 1640 media supplemented with 10% FBS and 2 mmol/L L-glutamine, were amplified in vitro prior to implantation. On the day of injection, cells were harvested, counted including a trypan blue viability dye (cut-off 80%), and resuspended in PBS at the appropriate concentration. The cells (5×10^6 in 200 μL PBS) were injected subcutaneously in the right flank of Female mice (C57BL6), 5 weeks of age (18-22 gm body weight) within 30 minutes after harvesting. After 9 days of tumor growth, mice were randomized into treatment groups at 10 animals/group. Treatments included vehicle (PBS), axelopran given as 1 mg/kg, p.o. daily, mouse anti-PD-1 given as 12.5 mg/kg i.p., 3x/week and axelopran plus mouse anti-PD-1. Animals were weighed thrice weekly and tumor growth measured using callipers as described previously for the colon cancer experiments.

[3] = test system: Mouse colon cancer (MC38) cells; assay: Syngeneic mouse colon cancer model; type: in vivo, mice (C57BL6)
Method: The syngeneic mouse model assay (FIG. 3B) allows a complete system where tumor progression is quantified in the presence of endogenous immune surveillance and an active gut microbiome.
Mouse colon cancer (MC38) cells were amplified in vitro prior to implantation. On the day of injection, cells were harvested, counted including a trypan blue viability dye (cut-off 80%), and resuspended in PBS at the appropriate concentration. The cells were injected subcutaneously in the right flank of Female mice (C57BL6), 5 weeks of age (18-22 gm body weight) at 5.106 cells/mouse in 200 μL PBS within 30 minutes after harvesting. After 15-18 days of tumor growth, mice were randomized into treatment groups at 10 animals/group. Animals were weighed thrice weekly and tumor growth measured using callipers. The tumour volume (TV) was extrapolated to a sphere using the formula shown below: […]
by calculating the mean radius from the two measurements.
The results of these studies are shown in FIG. 12A, 12B, 13 as well as Table 2-3. The tumor growth curves in animals treated with the MOR antagonist, axelopran, mouse anti-PD-1 or a combination of both treatments are shown in FIGS. 12A and 12B. FIG. 12A and FIG. 12B show MC38 colon cancer tumor growth in syngeneic mice treated with Vehicle (Control), axelopran (1 mg/kg, p.o. daily), mouse anti-PD-1 (12.5 mg/kg i.p.,3×-weekly) or axelopran plus anti-PD-1.

[4] = test system: blood vessels reaching MDA-MB-231 tumor on the CAM; assay: Chicken egg chorioallantoic membrane (CAM) tumor angiogenesis, blood vessel count; type: in vivo; conditions: 0.1, 0.5, 1.0 mg/kg; absence of exogenous opioids
Method: as §1
Furthermore, a chicken egg chorioallantoic membrane assay was conducted to determine blood vessel formation in the presence of increasing MOR antagonist (axelopran) concentrations (0, 0.1, 0.5, 1.0 mg/kg). Docetaxel was used as a control. For the testing CAM membranes were incubated in the presence of the MOR antagonist or docetaxel under the following conditions: Fertilized White Leghorn eggs were incubated at 37.5° C. with 50% relative humidity for 9 days. At that moment (E9), the CAM was dropped down by drilling a small hole through the eggshell into the air sac, and a 1 cm window was cut in the eggshell above the CAM. At least 20 eggs (depending on embryo surviving rate after 9 days of development, there could be more than 20 eggs per group) were grafted for each group. […] The number of blood vessels that reach the tumor and feed the tumor proliferation were counted in triplicate to evaluate tumor angiogenesis. […]

NC(=O)c1cccc(C2CC3CCC(C2)N3CCN(CC2CCCCC2)C(=O)[C@@H](O)CO)c1 (stereo partly drawn) [axelopran, 3-[(1R,3r,5S)-8-(2-{(cyclohexylmethyl)[(2S)-2,3-dihydroxypropanoyl]amino}ethyl)-8-azabicyclo[3.2.1]octan-3-yl]benzamide]
angiogenesis (HUVEC cell tube formation) [1]: inhibit angiogenesis | distribution of tumor volumes ([2]; compared to animals not treated with axelopran): lower and more uniform | inhibition of tumor progression ([2]; day 23, axelopran 1 mg/kg p.o. daily, mouse anti-PD-1 12.5 mg/kg i.p. 3x/week): most prominent | Tumor Size @ day 13, Mean ([3]; axelopran 1 mg/kg p.o. daily, mouse anti-PD-1 12.5 mg/kg i.p. 3×-weekly): 1,479 mm^3 | Survival, Median ([3]; axelopran 1 mg/kg, anti-PD-1): 13.0 days | Growth Rate, Mean ([3]; initial 8 days of treatments, axelopran 1 mg/kg p.o. daily, mouse anti-PD-1 12.5 mg/kg i.p.): 84.5 mm^3/day | interaction of axelopran activity with anti-PD-1 treatment ([3]; presence of a microbiome, colon cancer): synergistic | angiogenesis (blood vessel formation, CAM) [4]: inhibit angiogenesis
